Assay [1] deals with Ov 2008. Put plainly: Uptake of Rhodamine-HPMA polymers into tumour cell lines. Type of assay: cell-based. As to conditions: Ov 2008, Balb/C-Nu, Ovarian; 5 hours at 37° C. On the procedure:
(§1) Cells from various tumour cell lines were allowed to grow for 2 days on glass slides incubated in appropriate media at 37° C. in 5% CO2. […] Cells were incubated for a further 5 hours at 37° C. in 5% CO2. At this time the media was removed and uptake into the cells was assessed by fluorescent microscopy of internalization of the rhodamine fluorophore. Uptake was determined on a relative scale.

In assay [2] the test system is L1210FR. The assay is described as above. Type of assay: cell-based. The following applies: DBA/2, Leukemia, 5 hours at 37° C. The protocol:
as §1

Assay [3] concerns 4T1. Described as above. Type of assay: cell-based. The following applies: 4T1, Balb/C, Breast; 5 hours at 37° C. On the procedure: as §1
Assay [4] concerns JC. The description is as above. Type of assay: cell-based. As to conditions: Balb/C, Breast, 5 hours at 37° C. The protocol: as §1
The subject of assay [5] is HCT-116. Described as above. As to conditions: HCT-116, Balb/C-Nu, Colon Carcin; 5 hours at 37° C. Type of assay: cell-based. The protocol:
as §1

Assay [6] relates to Ovcar. The description is as above. Type of assay: cell-based. The following applies: Ovarian, 5 hours at 37° C. The protocol:
as §1

The test system of assay [7] is ID8. The description is as above. Type of assay: cell-based. The following applies: ID8, C57/BI, Ovarian; 5 hours at 37° C. On the procedure: as §1
The test system of assay [8] is RENCA. The description is as above. Type of assay: cell-based. As to conditions: Balb/C, Renal cell, 5 hours at 37° C. The protocol:
as §1

The subject of assay [9] is M109. The description is as above. Type of assay: cell-based. As to conditions: M109, Balb/C, Lung; 5 hours at 37° C. On the procedure: as §1
Assay [10] relates to BW5147. The assay is described as above. Type of assay: cell-based. The following applies: BW5147, AKR/J, Lymphoma; 5 hours at 37° C. The protocol:
as §1

Assay [11] concerns B16. The description is as above. The following applies: B16, C57/BI, Melanoma; 5 hours at 37° C. Type of assay: cell-based. The protocol:
as §1

The test system of assay [12] is MMT060562. Described as above. The following applies: MMT060562, Balb/C, Breast; 5 hours at 37° C. Type of assay: cell-based. The protocol:
as §1

Assay [13] has as its system LL-2. Described as above. Type of assay: cell-based. As to conditions: LL-2, C57/BI, Lung; 5 hours at 37° C. The protocol:
as §1

In assay [14] the test system is L1210. Described as above. Type of assay: cell-based. The following applies: L1210, DBA/2, Leukemia; 5 hours at 37° C. On the procedure: as §1
In assay [15] the test system is P815. The assay is described as above. Type of assay: cell-based. As to conditions: P815, DBA/2, Mastocytoma; 5 hours at 37° C. The protocol:
as §1

Assay [16] deals with Colo-26. Described as above. Type of assay: cell-based. The following applies: Colo-26, Balb/C, Colon Carcin; 5 hours at 37° C. On the procedure: as §1
In assay [17] the test system is O157. Described as above. Type of assay: cell-based. More on the design: key: −: Uptake was determined on a relative scale; +/−: Uptake was determined on a relative scale; +: Uptake was determined on a relative scale; ++: Uptake was determined on a relative scale; +++: Uptake was determined on a relative scale. As to conditions: O157, Balb/C, Bcell Lymph; 5 hours at 37° C. On the procedure:
as §1

Assay [18] relates to P815 tumour cells. As to conditions: mice bearing P815 tumour; 5 mg/kg Rhodamine conjugated to HPMA intraperitoneally; six hours after injection; FIG. 1. On the procedure:
For tumour accumulation studies, various strains of mice bearing a variety of tumours were injected intraperitoneally with 5 mg/kg Rhodamine conjugated to the HPMA polymers. Six hours after injection, the mice were sacrificed, their tumours removed and cryo-embedded before cryostatic sectioning. The level of accumulation of the Rhodamine-HPMA was determined by fluorescent microscopy using a Zeiss microscope equiped with Axioplan software. […] Blue staining is BisBenzamide staining of cell nuclei.

As for Rhodamine-HPMA polymer, the “Uptake into the cells (internalization of the rhodamine fluorophore, fluorescent microscopy), relative scale” value (“Uptake into the cells … relative scale” below) in assay [1] was “−”; in assay [2] it was “−”; in assay [3], “−”; in assay [4], “−”; in assay [5], “+”; in assay [6] it was “−”. For the same substance, the “Uptake into the cells … relative scale” value in [7] was “−”; in assay [8], “−”; in assay [9], “−”; in assay [10], “+/−”; in [11] it was “−”; in [12], “−”. Further, the “Uptake into the cells … relative scale” value is listed as “−” in assay [13]; “−” in assay [14]; “−” in assay [15]; “−” in [16]; “+/−” in assay [17]. Moreover, the “Level of accumulation / polymer uptake by P815 tumour cells (fluorescent microscopy of cryostat sections)” value in assay [18] is recorded as “accumulation”.

The values are drawn from patent US20060127310A1, “Amplification of biotin-mediated targeting” (priority 2002, published 2006).
